Measured values published in US11252963B2, “Pesticidally active pyrazole derivatives” (SYNGENTA PARTICIPATIONS AG, priority 2017, dated 2022).
Like-named read-outs stand apart in the source and are kept apart here.

Columns and labels:
Assay type in all cases: in vivo
[1] = system: Diabrotica balteata (Corn root worm); experiment: Diabrotica balteata (Corn root worm) mortality test on sprayed maize sprouts; conditions: 96 h
Experimental: Diabrotica balteata (Corn root worm):
Maize sprouts placed onto an agar layer in 24-well microtiter plates were treated with aqueous test solutions prepared from 10′000 ppm DMSO stock solutions by spraying. After drying, the plates were infested with L2 larvae (6 to 10 per well). The samples were assessed for mortality 4 days after infestation.

[2] = system: Euschistus heros (Neotropical Brown Stink Bug); experiment: Euschistus heros (Neotropical Brown Stink Bug): feeding/contact activity; conditions: 120 h
Experimental: Euschistus heros (Neotropical Brown Stink Bug): Feeding/Contact Activity
Soybean leaves on agar in 24-well microtiter plates were sprayed with aqueous test solutions prepared from 10,000 ppm DMSO stock solutions. After drying the leaves were infested with N2 nymphs. The samples were assessed for mortality 5 days after infestation.

[3] = system: Myzus persicae (Green Peach Aphid); experiment: Myzus persicae (Green Peach Aphid): feeding/contact activity; conditions: foliar, 144 h
Experimental: Myzus persicae (Green Peach Aphid): Feeding/Contact Activity
Sunflower leaf discs were placed onto agar in a 24-well microtiter plate and sprayed with aqueous test solutions prepared from 10,000 ppm DMSO stock solutions. After drying, the leaf discs were infested with an aphid population of mixed ages. The samples were assessed for mortality 6 days after infestation.

[4] = system: Plutella xylostella (Diamond Back Moth); experiment: Plutella xylostella (Diamond Back Moth): feeding/contact activity; conditions: 120 h
Experimental: Plutella xylostella (Diamond Back Moth): Feeding/Contact Activity
24-well microtiter plates with artificial diet were treated with aqueous test solutions prepared from 10′000 ppm DMSO stock solutions by pipetting. After drying, the plates were infested with L2 larvae (10 to 15 per well). The samples were assessed for mortality 5 days after infestation.

[5] = system: Spodoptera littoralis (Egyptian Cotton Leaf Worm); experiment: Spodoptera littoralis (Egyptian Cotton Leaf Worm): feeding/contact activity; conditions: foliar, 72 h
Experimental: Spodoptera littoralis (Egyptian Cotton Leaf Worm): Feeding/Contact Activity
Cotton leaf discs were placed onto agar in 24-well microtiter plates and sprayed with aqueous test solutions prepared from 10′000 ppm DMSO stock solutions. After drying the leaf discs were infested with five L1 larvae. The samples were assessed for mortality 3 days after infestation.

[6] = system: Tetranychus urticae (Two-Spotted Spider Mite); experiment: Tetranychus urticae (Two-Spotted Spider Mite): feeding/contact activity; conditions: foliar, 192 h, read-out: mortality on mixed population (mobile stages)
Experimental: Tetranychus urticae (Two-Spotted Spider Mite): Feeding/Contact Activity
Bean leaf discs on agar in 24-well microtiter plates were sprayed with aqueous test solutions prepared from 10′000 ppm DMSO stock solutions. After drying the leaf discs were infested with a mite population of mixed ages. The samples were assessed for mortality on mixed population (mobile stages) 8 days after infestation.

[7] = system: Thrips tabaci (Onion Thrips); experiment: Thrips tabaci (Onion Thrips): feeding/contact activity; conditions: foliar, 144 h
Experimental: Thrips tabaci (Onion Thrips): Feeding/Contact Activity
Sunflower leaf discs were placed on agar in 24-well microtiter plates and sprayed with aqueous test solutions prepared from 10′000 ppm DMSO stock solutions. After drying the leaf discs were infested with a thrips population of mixed ages. The samples were assessed for mortality 6 days after infestation.

[8] = application rate 200 ppm, maize sprouts sprayed, L2 larvae, assessed 4 days after infestation, read-out: mortality
[9] = application rate 200 ppm, soybean leaves sprayed, N2 nymphs, assessed 5 days after infestation, read-out: mortality
[10] = application rate 200 ppm, sunflower leaf discs sprayed, aphid population of mixed ages, assessed 6 days after infestation, read-out: mortality
[11] = application rate 200 ppm, artificial diet treated by pipetting, L2 larvae, assessed 5 days after infestation, read-out: mortality
[12] = application rate 200 ppm, cotton leaf discs sprayed, L1 larvae, assessed 3 days after infestation, read-out: mortality
[13] = application rate 200 ppm, bean leaf discs sprayed, mite population of mixed ages, assessed 8 days after infestation
[14] = application rate 200 ppm, sunflower leaf discs sprayed, thrips population of mixed ages, assessed 6 days after infestation, read-out: mortality

Measured: mortality at 200 ppm

COCN(C(=O)c1cc(-c2cnn(-c3c(OC(F)F)c(C(F)(F)C(F)(F)F)nn3C)c2)ccc1Cl)C1(C#N)CC1 [Compound 1, 2-chloro-N-(1-cyanocyclopropyl)-5-[1-[4-(difluoromethoxy)-2-methyl-5-(1,1,2,2,2-pentafluoroethyl)pyrazol-3-yl]pyrazol-4-yl]-N-(methoxymethyl)benzamide]
≥ 80%: [1]; [8] | [2]; [9] | [3]; [10] | [4]; [11] | [5]; [12] | [6]; [13] | [7]; [14]

C#CCN(C(=O)c1cc(-c2cnn(-c3c(OC(F)F)c(C(F)(F)C(F)(F)F)nn3C)c2)ccc1Cl)C1CC1 [Compound 2, 2-chloro-N-cyclopropyl-5-[1-[4-(difluoromethoxy)-2-methyl-5-(1,1,2,2,2-pentafluoroethyl)pyrazol-3-yl]pyrazol-4-yl]-N-prop-2-ynyl-benzamide]
≥ 80%: [1]; [8] | [2]; [9] | [3]; [10] | [4]; [11] | [5]; [12] | [6]; [13] | [7]; [14]

Cn1nc(C(F)(F)C(F)(F)F)c(OC(F)F)c1-n1cc(-c2ccc(Cl)c(C(=O)N(CC#N)C3(C#N)CC3)c2)cn1 [Compound 3, 2-chloro-N-(1-cyanocyclopropyl)-N-(cyanomethyl)-5-[1-[4-(difluoromethoxy)-2-methyl-5-(1,1,2,2,2-pentafluoroethyl)pyrazol-3-yl]pyrazol-4-yl]benzamide]
≥ 80%: [1]; [8] | [2]; [9] | [3]; [10] | [4]; [11] | [5]; [12] | [6]; [13] | [7]; [14]

CC(C)OC(=O)N(C(=O)c1cc(-c2cnn(-c3c(OC(F)F)c(C(F)(F)C(F)(F)F)nn3C)c2)ccc1Cl)C1(C#N)CC1 [Compound 5, isopropyl N-[2-chloro-5-[1-[4-(difluoromethoxy)-2-methyl-5-(1,1,2,2,2-pentafluoroethyl)pyrazol-3-yl]pyrazol-4-yl]benzoyl]-N-(1-cyanocyclopropyl)carbamate]
≥ 80%: [1] | [2]; in Glycine max | [3] | [4] | [5] | [6] | [7]

CCOC(=O)N(C(=O)c1cc(-c2cnn(-c3c(OC(F)F)c(C(F)(F)C(F)(F)F)nn3C)c2)ccc1Cl)C1(C#N)CC1 [Compound 6, ethyl N-[2-chloro-5-[1-[4-(difluoromethoxy)-2-methyl-5-(1,1,2,2,2-pentafluoroethyl)pyrazol-3-yl]pyrazol-4-yl]benzoyl]-N-(1-cyanocyclopropyl)carbamate]
≥ 80%: [1] | [2]; in Glycine max | [3] | [4] | [5] | [6] | [7]

COC(=O)N(C(=O)c1cc(-c2cnn(-c3c(OC(F)F)c(C(F)(F)C(F)(F)F)nn3C)c2)ccc1Cl)C1(C#N)CC1 [Compound 7, methyl N-[2-chloro-5-[1-[4-(difluoromethoxy)-2-methyl-5-(1,1,2,2,2-pentafluoroethyl)pyrazol-3-yl]pyrazol-4-yl]benzoyl]-N-(1-cyanocyclopropyl)carbamate]
≥ 80%: [1] | [2]; in Glycine max | [3] | [4] | [5] | [6]

CC(=O)N(C(=O)c1cc(-c2cnn(-c3c(OC(F)F)c(C(F)(F)C(F)(F)F)nn3C)c2)ccc1Cl)C1(C#N)CC1 [Compound 8, N-acetyl-2-chloro-N-(1-cyanocyclopropyl)-5-[1-[4-(difluoromethoxy)-2-methyl-5-(1,1,2,2,2-pentafluoroethyl)pyrazol-3-yl]pyrazol-4-yl]benzamide]
≥ 80%: [1]; [8] | [2]; [9] | [3]; [10] | [4]; [11] | [5]; [12] | [6]; [13]

Cn1nc(C(F)(F)C(F)(F)F)c(OC(F)F)c1-n1cc(-c2ccc(Cl)c(C(=O)N(CC3CC3)C3(C#N)CC3)c2)cn1 [Compound 9, 2-chloro-N-(1-cyanocyclopropyl)-N-(cyclopropylmethyl)-5-[1-[4-(difluoromethoxy)-2-methyl-5-(1,1,2,2,2-pentafluoroethyl)pyrazol-3-yl]pyrazol-4-yl]benzamide]
≥ 80%: [1]; [8] | [2]; [9] | [3]; [10] | [4]; [11] | [5]; [12] | [6]; [13] | [7]; [14]

Cn1nc(C(F)(F)C(F)(F)F)c(OC(F)F)c1-n1cc(-c2ccc(Cl)c(C(=O)N(CC(F)(F)F)C3(C#N)CC3)c2)cn1 [Compound 10, 2-chloro-N-(1-cyanocyclopropyl)-5-[1-[4-(difluoromethoxy)-2-methyl-5-(1,1,2,2,2-pentafluoroethyl)pyrazol-3-yl]pyrazol-4-yl]-N-(2,2,2-trifluoroethyl)benzamide]
≥ 80%: [1]; [8] | [3]; [10] | [4]; [11] | [5]; [12] | [7]; [14]

CC(C)CN(C(=O)c1cc(-c2cnn(-c3c(OC(F)F)c(C(F)(F)C(F)(F)F)nn3C)c2)ccc1Cl)C1(C#N)CC1 [Compound 11, 2-chloro-N-(1-cyanocyclopropyl)-5-[1-[4-(difluoromethoxy)-2-methyl-5-(1,1,2,2,2-pentafluoroethyl)pyrazol-3-yl]pyrazol-4-yl]-N-isobutyl-benzamide]
≥ 80%: [1]; [8] | [2]; [9] | [3]; [10] | [4]; [11] | [5]; [12] | [7]; [14]

CC(C)C(=O)N(C(=O)c1cc(-c2cnn(-c3c(OC(F)F)c(C(F)(F)C(F)(F)F)nn3C)c2)ccc1Cl)C1(C#N)CC1 [Compound 12, 2-chloro-N-(1-cyanocyclopropyl)-5-[1-[4-(difluoromethoxy)-2-methyl-5-(1,1,2,2,2-pentafluoroethyl)pyrazol-3-yl]pyrazol-4-yl]-N-(2-methylpropanoyl)benzamide]
≥ 80%: [1]; [8] | [2]; [9] | [3]; [10] | [4]; [11] | [5]; [12] | [6]; [13]

CCOCN(C(=O)c1cc(-c2cnn(-c3c(OC(F)F)c(C(F)(F)C(F)(F)F)nn3C)c2)cnc1Cl)C1(C#N)CC1 [Compound 14, 2-chloro-N-(1-cyanocyclopropyl)-5-[1-[4-(difluoromethoxy)-2-methyl-5-(1,1,2,2,2-pentafluoroethyl)pyrazol-3-yl]pyrazol-4-yl]-N-(ethoxymethyl)pyridine-3-carboxamide]
≥ 80%: [1]; [8] | [2]; [9] | [3]; [10] | [4]; [11] | [5]; [12] | [6]; [13] | [7]; [14]

Cn1nc(C(F)(F)C(F)(F)F)c(OC(F)F)c1-n1cc(-c2cnc(Cl)c(C(=O)N(CC#N)C3(C#N)CC3)c2)cn1 [Compound 15, 2-chloro-N-(1-cyanocyclopropyl)-N-(cyanomethyl)-5-[1-[4-(difluoromethoxy)-2-methyl-5-(1,1,2,2,2-pentafluoroethyl)pyrazol-3-yl]pyrazol-4-yl]pyridine-3-carboxamide]
≥ 80%: [1]; [8] | [2]; [9] | [3]; [10] | [4]; [11] | [5]; [12] | [6]; [13] | [7]; [14]
